What was measured:
[1] = Water solubility of cyclodextrin complexes with or without polysorbate 80 / polypowder; assay type: physicochemical; conditions: aqueous with cosolvent or surfactant or cyclodextrin, complexed with hpbcd, read-out: solubility when complexed with hpbcd
[2] = room temperature, various compositions; cited from earlier work

solubility [1] [µg/mL]	Structure (SMILES)	degradation by water [2] [h]
> 10000	O=C(NN1C(=O)[C@@H]2[C@@H]3C=C[C@@H]([C@H]4C[C@@H]34)[C@@H]2C1=O)c1ccc(C(F)(F)F)cc1 [tecovirimat]	–
–	Cc1cc(C2=NOC(c3cc(Cl)cc(Cl)c3)(C(F)(F)F)C2)ccc1C(=O)NCC(=O)NCC(F)(F)F (centres unmarked) [Fluralaner, 4-[5-(3,5-dichlorophenyl)-5-trifluoromethyl-4,5-dihydroisoxazol-3-yl]-2-methyl-N-[(2,2,2-trifluoro-ethylcarbamoyl)-methyl]-benzamide]	≤ 48
